Assay results from BindingDB's records for doi:10.1016/j.chembiol.2015.08.013 (Aston University, 2015).
pIC50: −log10 of the molar value.

Tests used:
Assay in all cases: TG Activity Assays
[1] = target: T1, Protein-glutamine gamma-glutamyltransferase 2 (Homo sapiens, UniProt P21980)
T1 sequence (P21980 whole entry): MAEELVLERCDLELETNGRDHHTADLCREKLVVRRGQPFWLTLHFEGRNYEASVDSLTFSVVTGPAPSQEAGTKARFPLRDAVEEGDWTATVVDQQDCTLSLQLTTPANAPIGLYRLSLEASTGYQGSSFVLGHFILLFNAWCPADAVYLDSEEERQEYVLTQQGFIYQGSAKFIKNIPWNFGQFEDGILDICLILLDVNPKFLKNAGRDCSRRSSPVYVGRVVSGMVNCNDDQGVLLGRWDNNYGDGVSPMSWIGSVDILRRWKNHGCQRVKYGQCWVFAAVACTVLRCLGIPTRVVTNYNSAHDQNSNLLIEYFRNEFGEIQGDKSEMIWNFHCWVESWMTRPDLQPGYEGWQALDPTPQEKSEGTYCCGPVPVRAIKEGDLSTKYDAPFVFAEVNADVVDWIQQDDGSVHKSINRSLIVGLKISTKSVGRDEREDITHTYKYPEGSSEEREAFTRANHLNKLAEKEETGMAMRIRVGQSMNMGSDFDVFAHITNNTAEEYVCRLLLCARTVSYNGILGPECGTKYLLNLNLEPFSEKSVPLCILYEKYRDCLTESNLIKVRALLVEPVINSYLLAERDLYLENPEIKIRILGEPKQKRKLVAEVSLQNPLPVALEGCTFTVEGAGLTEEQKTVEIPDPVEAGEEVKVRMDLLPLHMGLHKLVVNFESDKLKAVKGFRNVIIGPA
Experimental: (§1) The incorporated biotinylated peptides were measured using horseradish peroxidase-conjugated streptavidin and then measured using o-phenylenediamine dihydrochloride substrates. The absorbance was measured at 490 nm using a microplat

[2] = target: T2, Protein-glutamine gamma-glutamyltransferase E (Homo sapiens, UniProt Q08188)
T2 sequence (Q08188 whole entry): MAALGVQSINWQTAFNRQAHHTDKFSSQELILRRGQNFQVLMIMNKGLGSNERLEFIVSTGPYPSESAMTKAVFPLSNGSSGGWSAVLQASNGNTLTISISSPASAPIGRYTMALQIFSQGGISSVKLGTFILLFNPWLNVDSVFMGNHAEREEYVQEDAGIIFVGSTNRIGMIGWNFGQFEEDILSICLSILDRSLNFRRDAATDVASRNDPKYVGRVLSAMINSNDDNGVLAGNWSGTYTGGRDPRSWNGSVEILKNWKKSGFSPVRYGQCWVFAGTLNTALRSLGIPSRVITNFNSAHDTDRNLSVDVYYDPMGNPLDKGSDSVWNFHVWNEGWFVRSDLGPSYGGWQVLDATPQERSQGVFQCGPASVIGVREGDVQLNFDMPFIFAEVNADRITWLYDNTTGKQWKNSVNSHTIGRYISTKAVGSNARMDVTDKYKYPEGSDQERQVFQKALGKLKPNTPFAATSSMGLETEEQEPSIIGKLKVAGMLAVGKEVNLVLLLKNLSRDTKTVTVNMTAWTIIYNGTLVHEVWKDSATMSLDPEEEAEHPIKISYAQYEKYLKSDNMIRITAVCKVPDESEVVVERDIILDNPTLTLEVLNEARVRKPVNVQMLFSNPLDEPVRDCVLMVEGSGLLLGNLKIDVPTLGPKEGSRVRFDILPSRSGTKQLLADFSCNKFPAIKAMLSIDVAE
Experimental: as §1

[3] = target: T3, Protein-glutamine gamma-glutamyltransferase K (Homo sapiens, UniProt P22735)
T3 sequence (P22735 whole entry): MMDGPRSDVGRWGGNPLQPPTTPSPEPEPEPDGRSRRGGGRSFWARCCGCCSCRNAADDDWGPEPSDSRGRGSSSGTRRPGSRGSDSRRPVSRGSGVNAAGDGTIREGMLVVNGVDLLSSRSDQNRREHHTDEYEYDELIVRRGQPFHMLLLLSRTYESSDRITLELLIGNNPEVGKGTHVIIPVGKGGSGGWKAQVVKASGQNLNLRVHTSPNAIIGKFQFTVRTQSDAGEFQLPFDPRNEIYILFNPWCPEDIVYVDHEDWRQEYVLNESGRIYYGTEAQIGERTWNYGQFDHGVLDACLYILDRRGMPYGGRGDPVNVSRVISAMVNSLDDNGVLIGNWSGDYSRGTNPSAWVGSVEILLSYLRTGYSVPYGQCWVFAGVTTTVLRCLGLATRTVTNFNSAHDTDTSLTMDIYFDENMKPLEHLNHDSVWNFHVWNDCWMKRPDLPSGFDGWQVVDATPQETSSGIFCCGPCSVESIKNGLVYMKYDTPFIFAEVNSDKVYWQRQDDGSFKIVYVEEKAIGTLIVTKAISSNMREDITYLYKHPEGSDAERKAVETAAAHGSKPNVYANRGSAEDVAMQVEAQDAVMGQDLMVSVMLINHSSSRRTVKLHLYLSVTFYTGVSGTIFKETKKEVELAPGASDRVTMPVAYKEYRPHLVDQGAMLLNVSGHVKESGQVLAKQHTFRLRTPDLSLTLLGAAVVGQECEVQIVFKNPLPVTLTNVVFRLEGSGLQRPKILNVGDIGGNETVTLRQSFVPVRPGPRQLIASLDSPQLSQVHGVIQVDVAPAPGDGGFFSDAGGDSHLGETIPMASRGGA
Experimental: as §1

SMILES	pIC50 [1]	pIC50 [2]	pIC50 [3]
C=CC(=O)NCC(=O)N1CCN(C(=O)OCc2ccc3ccccc3c2)CC1 [2-Naphthylmethyl 4-[2-(prop-2-enoylamino)acetyl]piperazine-1-carboxylate (3c)]	6.36	< 4.00	< 4.00
O=C(CBr)NCC(=O)N1CCN(C(=O)OCc2ccc3ccccc3c2)CC1 [2-Naphthylmethyl 4-[2-[(2-bromoacetyl)amino]acetyl]piperazine-1-carboxylate (6c)]	7.54	–	–
C=CC(=O)NCC(=O)N1CCN(C(=O)OCc2ccc(C(=O)OC)cc2)CC1 [(4-Methoxycarbonylphenyl)methyl 4-[2-(prop-2-enoylamino)acetyl]piperazine-1-carboxylate (3b)]	5.20	–	–
COC(=O)c1ccc2cc(COC(=O)N3CCN(C(=O)CNC(=O)CBr)CC3)ccc2c1 [(6-Methoxycarbonyl-2-naphthyl)methyl 4-[2-[(2-bromoacetyl)amino]acetyl]piperazine-1-carboxylate (6d)]	7.82	4.19	5.30
C=CS(=O)(=O)NCC(=O)N1CCN(C(=O)OCc2ccccc2)CC1 [Benzyl 4-[2-(vinylsulfonylamino)acetyl]piperazine-1-carboxylate (2a)]	5.76	–	–
Cc1c(C)[n+](C)c(SCC(=O)NCC(=O)N2CCN(C(=O)OCc3ccccc3)CC2)n1C [Benzyl 4-[2-[[2-(1,3,4,5-tetramethylimidazol-1-ium-2-yl)sulfanylacetyl]amino]-acetyl]-piperazine-1-carboxylate bromide (1s)]	4.00	–	–
C[S+](C)CC(=O)NCC(=O)N1CCN(C(=O)OCc2ccc3ccccc3c2)CC1 [Dimethyl-[2-[[2-[4-(2-naphthylmethoxycarbonyl)piperazin-1-yl]-2-oxo-ethyl]amino]-2-oxo-ethyl]sulfonium bromide (1c)]	5.97	< 4.00	< 4.00
C=CC(=O)NCC(=O)N1CCN(S(=O)(=O)c2cccc3c(N(C)C)cccc23)CC1 [N-[2-[4-[[5-(dimethylamino)-1-naphthyl]sulfonyl]piperazin-1-yl]-2-oxo-ethyl]prop-2-enamide (3h)]	–	4.70	4.60
C[S+](C)CC(=O)NCC(=O)N1CCN(C(=O)OC(C)(C)C)CC1 [[2-[[2-(4-tert-Butoxycarbonylpiperazin-1-yl)-2-oxo-ethyl]amino]-2-oxo-ethyl]-dimethylsulfonium bromide (1m)]	6.56	< 4.00	< 4.00
COC(=O)c1ccc(COC(=O)N2CCN(C(=O)CNC(=O)C[S+](C)C)CC2)cc1 [[2-[[2-[4-[(4-Methoxycarbonylphenyl)methoxycarbonyl]piperazin-1-yl]-2-oxo-ethyl]-amino]-2-oxo-ethyl]-dimethyl-sulfonium bromide (1b)]	5.48	< 4.00	< 4.00

More lines, now with the values ahead:

pIC50 [1]	pIC50 [2]	pIC50 [3]	SMILES
8.20	–	–	O=C(CBr)NCC(=O)N1CCN(C(=O)OCC23CC4CC(CC(C4)C2)C3)CC1 [1-Adamantylmethyl 4-[2-[(2-bromoacetyl)amino]acetyl]piperazine-1-carboxylate (6f)]
6.05	< 4.00	< 4.00	C=CC(=O)NCC(=O)N1CCN(C(=O)OCCC23CC4CC(CC(C4)C2)C3)CC1 [2-(1-Adamantyl)ethyl 4-[2-(prop-2-enoylamino)acetyl]piperazine-1-carboxylate (3g)]
–	4.30	5.52	O=C(CBr)NCC(=O)N1CCN(C(=O)OCCC23CC4CC(CC(C4)C2)C3)CC1 [2-(1-Adamantyl)ethyl 4-[2-[(2-bromoacetyl)amino]acetyl]piperazine-1-carboxylate (6g)]
8.68	–	–	COC(=O)c1ccc(COC(=O)N2CCN(C(=O)CNC(=O)CBr)CC2)cc1 [(4-Methoxycarbonylphenyl)methyl 4-[2-[(2-bromoacetyl)amino]acetyl]piperazine-1-carboxylate (6b)]
8.18	–	–	COC(=O)c1ccc2cc(COC(=O)N3CCN(C(=O)CNC(=O)CCl)CC3)ccc2c1 [(6-Methoxycarbonyl-2-naphthyl)methyl 4-[2-[(2-chloroacetyl)amino]acetyl]piperazine-1-carboxylate (6n)]
5.23	–	–	C=CC(=O)NCC(=O)N1CCN(C(=O)OCc2ccccc2)CC1 [Benzyl 4-[2-(prop-2-enoylamino)acetyl]piperazine-1-carboxylate (3a)]
8.41	4.15	6.00	O=C(CBr)NCC(=O)N1CCN(C(=O)C23CC4CC(CC(C4)C2)C3)CC1 [N-[2-[4-(adamantane-1-carbonyl)piperazin-1-yl]-2-oxo-ethyl]-2-bromo-acetamide (6e)]
8.06	–	–	O=C(CCl)NCC(=O)N1CCN(C(=O)C23CC4CC(CC(C4)C2)C3)CC1 [N-[2-[4-(adamantane-1-carbonyl)piperazin-1-yl]-2-oxo-ethyl]-2-chloro-acetamide (6o)]
6.06	–	–	C=CS(=O)(=O)NCC(=O)N1CCN(C(=O)C23CC4CC(CC(C4)C2)C3)CC1 [N-[2-[4-(adamantane-1-carbonyl)piperazin-1-yl]-2-oxo-ethyl]ethenesulfonamide (2e)]
5.85	< 4.00	< 4.00	C[S+](C)CC(=O)NCC(=O)N1CCN(C(=O)OCc2ccccc2)CC1 [[2-[[2-(4-Benzyloxycarbonylpiperazin-1-yl)-2-oxo-ethyl]amino]-2-oxo-ethyl]-dimethylsulfonium bromide (1a)]
5.50	–	–	C[S+](C)CC(=O)NCC(=O)N1CCN(C(=O)OCCC23CC4CC(CC(C4)C2)C3)CC1 [[2-[[2-[4-[2-(1-Adamantyl)ethoxycarbonyl]piperazin-1-yl]-2-oxo-ethyl]amino]-2-oxo-ethyl]-dimethyl-sulfonium bromide (1g)]
